We go through two molecules from patent publication US20260200913A1, “ATROPISOMERS OF MAT2A INHIBITORS” (IDEAYA Biosciences, Inc., priority 2022, published 2026).

The test system of one experiment is HCT116 MTAP null cells. Kind of experiment: HCT116 MTAP-Null Cell Line Viability. Format: cell-based. As to conditions: final count 4-5 days post treatment (IncuCyte, GFP), normalized to DMSO wells. The procedure: Preparation: HCT116 WT and MTAP null cells were cultured in DMEM/F12+10% FBS at 37° C. Left the media, dissociation reagent, and PBS in room temperature at least 1 hr prior to start.
Process: Washed cells with 5 mL of PBS, aspirate the PBS. Added 1 mL of dissociation reagent (Trypsin, Gibco #25200114) and left at room temperature for 2-5 mins. When cells were detached, added 5 ml of fresh media. Cells were collected into a 10 mL tube and centrifuged at 1000 rpm for 5 minutes at room temperature. Aspirated media, resuspended in 5 mL fresh media, and counted on Bio-Rad TC20 Cell Counter. Based on the count and the table below, added cells to a clear flat bottom, TC-treated 384-well plate (Corning #3764).
Treated the cells the next day post splitting. Used a 10 mM stock of compound.
Process: Compound treatment was applied to cells using a Tecan D300e digital dispenser with a high concentration 20 micromolar and 3-fold serial dilutions over 9 concentrations in triplicate on a 384-well plate.
4-5 days post treatment, used a Live-Cell Analysis System (IncuCyte®) suitable for reading GFP to do a final count. Raw data were normalized based on the average value of the DMSO wells on each plate.

A further experiment deals with T1, Human MAT2A (Homo sapiens, UniProt P31153).
T1 construct: Human MAT2A: Cepter, amino acids 1-395 Clone ID 334; purchased Cepter Clone ID 334, lot 00023-148
T1 sequence (P31153 whole entry, the tested form may be a part): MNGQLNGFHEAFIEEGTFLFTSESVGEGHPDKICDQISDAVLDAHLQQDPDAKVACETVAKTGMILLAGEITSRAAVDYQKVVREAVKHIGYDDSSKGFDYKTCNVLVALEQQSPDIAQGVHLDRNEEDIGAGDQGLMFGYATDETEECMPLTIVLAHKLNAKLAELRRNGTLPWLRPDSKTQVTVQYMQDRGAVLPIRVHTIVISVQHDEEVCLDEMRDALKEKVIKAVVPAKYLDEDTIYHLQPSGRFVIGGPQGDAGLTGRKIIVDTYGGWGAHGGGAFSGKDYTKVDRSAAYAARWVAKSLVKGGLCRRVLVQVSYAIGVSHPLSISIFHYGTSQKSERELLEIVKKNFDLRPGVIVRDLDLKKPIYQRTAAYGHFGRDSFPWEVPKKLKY
Kind of experiment: Phosphate Sensor Fluorescence Assay (MAT2A enzyme inhibition). Format: biochemical. As to conditions: 5.8 nM MAT2A (1-395), 500 uM L-methionine, 500 uM ATP, 1 hour at room temperature, fluorescence at 450 nm. As for the experimental part: MAT2A enzyme is incubated with a test compound in DMSO or DMSO and its substrates (L-methionine and ATP) in a microtiter plate. The enzymatic reaction is stopped by the addition of Working Phosphate Sensor Mixture. The plate is analyzed for fluorescence at 450 nm. The high control (DMSO with enzyme and its substrates) gives high fluorescence which represents no inhibition of enzymatic activity while the low control (DMSO with MAT2A substrates and no enzyme) gives low fluorescence which represents full inhibition of enzymatic activity. […]
For the assay, a mixture of 1 mM L-methionine/1 mM ATP (2× final pre-stopped concentration) in assay buffer: MAT2A (2× final pre-stopped concentration) in Assay Buffer and Working Phosphate Sensor Mixture (1.5 uM Phosphate Sensor/30 mM EDTA in Assay Buffer, which is 3× final concentrations) were prepared. […] The plate was read for fluorescence at 450 nm after exciting at 430 nm on a Tecan Spark microplate reader.
Percent inhibition was calculated in Chemical and Biological Information System (CBIS), (ChemInnovation Software Inc.). […]

One may read the EC50 as the concentration giving half of the maximal effect. A word on the IC50: it is the concentration that gives 50% inhibition. A high value points to weaker potency in that assay. Consider `Nc1nc(=O)n(-c2ccccc2Cl)c2nc(C(F)(F)F)ccc12` (atropisomer, axis not shown) [Atropisomer Ib], for which the EC50 with HCT116 MTAP null cells was determined as 149 nM. Also, half-maximal inhibition at Human MAT2A (IC50) was put at 60 nM.
Take `Nc1nc(=O)n(-c2ccccc2Cl)c2nc(C(F)(F)F)ccc12` (single isomer, unassigned) [Atropisomer Ia]: a half-maximal response in the experiment on HCT116 MTAP null cells (EC50) required 20 nM. Moreover, the IC50 on Human MAT2A came out at 3 nM.
